Reference: patent US12509424B2, “Compound and composition as PDGF receptor kinase inhibitor” (NIPPON SHINYAKU CO., LTD., priority 2019, dated 2025)
pIC50: −log10 of the molar value. Where two headings read alike, the source gives them in different places.

Tests used:
[1] = target: PDGFR-β (Homo sapiens (Human), UniProt P09619); assay: PDGFR-β tyrosine kinase inhibitory action (HTRF KinEASE-TK); format: biochemical; details: PDGFR-β enzyme 1 ng/μL, 30° C. for 30 minutes; read-out: PDGF-β IC50
How it was run: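 Recombinant PDGFR-β at 1 ng/μL final with TK substrate-3-biotin in a substrate solution containing 0.6 μM ATP; buffer 50 mM HEPES pH 7.0, 5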

[2] = target: TEL-PDGFRβ fusion gene transfected cells (Ba/F3) (Homo sapiens, UniProt P09619); assay: Suppression of proliferation of TEL-PDGFRβ fusion gene transfected Ba/F3 cells; format: cell-based; details: TEL-PDGFRβ expressing Ba/F3 cells, 72 hours, final concentration 0.1 to 10,000 nM; read-out: PDGFR β/BaF3 proliferation inhibition (IC50)
From the text: (§1) 2. Preparation of Test Substance
(§2) 4. Analysis of Measurement Results

[3] = system: pulmonary arterial smooth muscle cells; assay: Suppression of proliferation of pulmonary arterial smooth muscle cells (PDGF-BB stimulation, BrdU); format: cell-based; details: healthy human derived pulmonary arterial smooth muscle cells, human PDGF-BB 10 ng/mL stimulation, BrdU uptake after 1 day, test substance final concentration 3 to 10,000 nM, read-out: Human normal PASMC proliferation suppression (PDGF stimulation_IC50)
How it was run: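 Test compound (final 3 to 10,000 nM) was added together with BrdU and PDGF-BB (final 10 ng/mL) to healthy human pulmonary artery smooth muscle cells held a day in 0.1% FBS. Proliferation was read after 1 day as anti-BrdU-detected BrdU incorporation.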

[4] = target: TEL-KIT fusion gene transfected cells (Ba/F3) (Homo sapiens, UniProt P10721); assay: Suppression of proliferation of TEL-KIT fusion gene transfected Ba/F3 cells; details: read-out: KIT/BaF3 proliferation inhibition (IC50); TEL-KIT expressing Ba/F3 cells, 72 hours, final concentration 0.1 to 10,000 nM;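 also: viable cells quantified via formazan from tetrazolium reduction, inhibition scaled with 0.1% DMSO control as 0% and medium-only blank as 100%, IC50 from two-parameter logistic fit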
[5] = system: TEL-PDGFRβ fusion gene transfected cells (Ba/F3); assay: Suppression of proliferation of TEL-PDGFRβ fusion gene transfected Ba/F3 cells; format: cell-based, human; details: TEL-PDGFRβ expressing Ba/F3 cells, 72 hours, final concentration 0.1 to 10,000 nM; read-out: PDGFR β/BaF3 proliferation inhibition (IC50)
From the text: as §1, §2

[6] = target: TEL-KIT fusion gene transfected cells (Ba/F3); assay: Suppression of proliferation of TEL-KIT fusion gene transfected Ba/F3 cells; details: read-out: KIT/BaF3 proliferation inhibition (IC50); TEL-KIT expressing Ba/F3 cells, 72 hours, final concentration 0.1 to 10,000 nM;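 also: viable cells quantified via formazan from tetrazolium reduction, inhibition scaled with 0.1% DMSO control as 0% and medium-only blank as 100%, IC50 from two-parameter logistic fit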
Sequence of TEL-KIT fusion gene transfected cells (Ba/F3) (P10721 26-976 limits assumed, change not shown): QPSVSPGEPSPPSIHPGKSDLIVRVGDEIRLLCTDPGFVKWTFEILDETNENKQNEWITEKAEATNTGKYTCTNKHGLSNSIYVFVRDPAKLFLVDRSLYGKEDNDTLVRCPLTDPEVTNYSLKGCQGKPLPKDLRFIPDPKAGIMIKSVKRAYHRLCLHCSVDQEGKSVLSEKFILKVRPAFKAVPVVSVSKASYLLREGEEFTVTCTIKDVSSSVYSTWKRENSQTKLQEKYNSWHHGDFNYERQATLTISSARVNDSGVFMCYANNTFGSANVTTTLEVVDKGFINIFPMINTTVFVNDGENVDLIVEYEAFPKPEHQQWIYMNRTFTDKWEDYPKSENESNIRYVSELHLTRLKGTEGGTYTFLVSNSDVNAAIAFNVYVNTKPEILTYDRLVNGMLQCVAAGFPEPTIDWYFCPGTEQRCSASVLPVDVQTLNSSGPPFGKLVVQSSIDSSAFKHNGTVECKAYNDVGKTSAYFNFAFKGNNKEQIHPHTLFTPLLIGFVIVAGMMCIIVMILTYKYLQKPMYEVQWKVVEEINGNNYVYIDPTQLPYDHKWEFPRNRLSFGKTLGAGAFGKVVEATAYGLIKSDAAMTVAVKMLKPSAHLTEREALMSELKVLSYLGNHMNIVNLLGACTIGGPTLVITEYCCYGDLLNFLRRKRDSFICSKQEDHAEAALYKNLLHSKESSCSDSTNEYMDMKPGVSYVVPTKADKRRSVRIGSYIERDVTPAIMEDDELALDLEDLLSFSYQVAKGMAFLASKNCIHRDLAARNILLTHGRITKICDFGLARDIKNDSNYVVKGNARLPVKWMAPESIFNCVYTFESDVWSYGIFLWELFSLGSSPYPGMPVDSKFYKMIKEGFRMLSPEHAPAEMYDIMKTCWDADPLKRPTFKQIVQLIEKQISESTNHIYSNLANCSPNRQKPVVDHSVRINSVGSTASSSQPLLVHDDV

Sequence of TEL-KIT fusion gene transfected cells (Ba/F3) (Homo sapiens, UniProt P10721) (P10721 26-976 limits assumed, change not shown): as above
Sequence of TEL-PDGFRβ fusion gene transfected cells (Ba/F3) (Homo sapiens, UniProt P09619) (P09619 33-1106 limits assumed, change not shown): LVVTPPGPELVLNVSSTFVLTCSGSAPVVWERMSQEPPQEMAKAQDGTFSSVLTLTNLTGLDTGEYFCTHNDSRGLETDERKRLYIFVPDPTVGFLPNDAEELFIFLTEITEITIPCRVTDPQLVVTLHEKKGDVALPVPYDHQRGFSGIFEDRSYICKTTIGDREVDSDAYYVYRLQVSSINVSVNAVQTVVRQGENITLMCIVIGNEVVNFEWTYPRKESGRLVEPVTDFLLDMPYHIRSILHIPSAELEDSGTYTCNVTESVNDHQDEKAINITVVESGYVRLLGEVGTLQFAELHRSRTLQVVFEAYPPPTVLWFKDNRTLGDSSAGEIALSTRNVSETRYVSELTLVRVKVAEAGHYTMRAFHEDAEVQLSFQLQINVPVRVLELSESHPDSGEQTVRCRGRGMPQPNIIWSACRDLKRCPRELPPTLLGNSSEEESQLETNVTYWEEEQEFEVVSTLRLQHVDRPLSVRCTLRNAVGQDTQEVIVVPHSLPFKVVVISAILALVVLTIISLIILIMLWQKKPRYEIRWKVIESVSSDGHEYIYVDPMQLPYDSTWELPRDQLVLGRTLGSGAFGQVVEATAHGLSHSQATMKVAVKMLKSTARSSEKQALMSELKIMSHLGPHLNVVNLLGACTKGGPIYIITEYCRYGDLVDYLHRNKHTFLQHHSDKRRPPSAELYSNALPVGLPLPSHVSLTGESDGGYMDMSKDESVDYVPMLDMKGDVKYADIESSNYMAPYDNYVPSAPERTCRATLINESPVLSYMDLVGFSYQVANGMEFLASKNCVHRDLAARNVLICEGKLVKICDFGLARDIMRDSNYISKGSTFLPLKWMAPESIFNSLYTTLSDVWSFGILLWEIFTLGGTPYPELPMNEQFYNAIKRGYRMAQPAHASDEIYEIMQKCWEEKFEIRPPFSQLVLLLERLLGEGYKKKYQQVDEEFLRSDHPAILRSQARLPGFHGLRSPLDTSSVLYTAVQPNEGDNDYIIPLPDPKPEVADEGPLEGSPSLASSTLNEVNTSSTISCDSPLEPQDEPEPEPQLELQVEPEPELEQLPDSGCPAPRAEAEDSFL
Sequence of PDGFR-β (P09619 33-1106): as the sequence (P09619 33-1106 limits assumed, change not shown) above

Row | pIC50 [1] | pIC50 [5] | pIC50 [6] | Compound | pIC50 [2] | pIC50 [3] | pIC50 [4] | pIC50 ([3]; PASMC, 24 h)
1 | 6.41 | 8.05 | 5.54 | Cc1ccc(C(=O)N[C@H]2CCCC[C@@H]2O)cc1OCc1cncc(-c2cccnc2)c1 [Example 165, 3-[([3,3′-bipyridin]-5-yl)methoxy]-N-[(1S,2S)-2-hydroxycyclohexyl]-4-methylbenzamide] | – | – | – | 7.34
2 | 7.31 | 8.60 | 5.92 | Cc1ccc(C(=O)N[C@H]2CCCC[C@@H]2O)cc1OCc1cncc(-c2ncccn2)c1 [Example 166, N-[(1S,2S)-2-hydroxycyclohexyl]-4-methyl-3-{[5-(pyrimidin-2-yl)pyridin-3-yl]methoxy}benzamide] | – | – | – | 7.19
3 | 6.46 | 7.74 | 5.39 | Cc1ccc(C(=O)N[C@H]2CCCC[C@@H]2O)cc1COc1cncc(-c2cccnc2)c1 [Example 168, 3-{[([3,3′-bipyridin]-5-yl)oxy]methyl}-N-[(1S,2S)-2-hydroxycyclohexyl]-4-methylbenzamide] | – | – | – | 6.96
4 | 7.28 | 8.40 | 6.40 | Cc1ccc(C(=O)N[C@H]2CCCC[C@@H]2O)cc1COc1cncc(-c2ncccn2)c1 [Example 169, N-[(1S,2S)-2-hydroxycyclohexyl]-4-methyl-3-({[5-(pyrimidin-2-yl)pyridin-3-yl]oxy}methyl)benzamide] | – | – | – | 7.37

The next lines start with the compound.

Row | Compound | pIC50 [1] | pIC50 [5] | pIC50 [6] | pIC50 [2] | pIC50 [3] | pIC50 [4] | pIC50 ([3]; PASMC, 24 h)
5 | 3-{[([3,3′-bipyridin]-5-yl)methyl]amino}-N-[(1S,2S)-2-hydroxycyclohexyl]-4-methylbenzamide [Example 93] | 6.44 | – | – | 7.35 | 6.59 | 5.21 | –
6 | Cc1ccc(C(=O)N[C@H]2CCCC[C@@H]2O)cc1C#Cc1cncc(-c2ccccc2)c1 [Example 60, N-[(1S,2S)-2-hydroxycyclohexyl]-4-methyl-3-[(5-phenylpyridin-3-yl)ethynyl]benzamide] | 7.34 | – | – | 8.23 | – | 6.39 | 7.59
7 | Cc1ccc(C(=O)N[C@H]2CCCC[C@@H]2O)cc1C#Cc1cncc(-c2ccccc2)n1 [Example 75, N-[(1S,2S)-2-hydroxycyclohexyl]-4-methyl-3-[(6-phenylpyrazin-2-yl)ethynyl]benzamide] | 7.82 | – | – | 8.35 | – | 6.52 | 7.89
8 | Cc1ccc(CNc2cncc(-c3ncccn3)c2)cc1NC(=O)N[C@@H]1CCCC[C@@H]1O [Example 163, N-[(1R,2S)-2-hydroxycyclohexyl]-N′-[2-methyl-5-({[5-(pyrimidin-2-yl)pyridin-3-yl]amino}methyl)phenyl]urea] | 6.59 | 6.70 | – | – | 6.82 | 5.59 | –
9 | Cc1ccc(C(=O)N[C@H]2CCCC[C@@H]2O)cc1/C=C/c1cncc(-c2ccccc2)c1 [Example 173, N-[(1S,2S)-2-hydroxycyclohexyl]-4-methyl-3-[(E)-2-(5-phenylpyridin-3-yl)ethenyl]benzamide] | 7.27 | – | – | 8.34 | – | 6.15 | –
